These are literature values, as cited in patent US6387949B1, “Substituted urea compounds useful in pain management” (AstraZeneca Canada Inc., priority 1998, dated 2002).

Series [1] deals with δ receptor (Homo sapiens, UniProt P41143). To be noted: background statement.
The conditions of series [2]: background statement.

Chain of δ receptor (P41143 whole entry): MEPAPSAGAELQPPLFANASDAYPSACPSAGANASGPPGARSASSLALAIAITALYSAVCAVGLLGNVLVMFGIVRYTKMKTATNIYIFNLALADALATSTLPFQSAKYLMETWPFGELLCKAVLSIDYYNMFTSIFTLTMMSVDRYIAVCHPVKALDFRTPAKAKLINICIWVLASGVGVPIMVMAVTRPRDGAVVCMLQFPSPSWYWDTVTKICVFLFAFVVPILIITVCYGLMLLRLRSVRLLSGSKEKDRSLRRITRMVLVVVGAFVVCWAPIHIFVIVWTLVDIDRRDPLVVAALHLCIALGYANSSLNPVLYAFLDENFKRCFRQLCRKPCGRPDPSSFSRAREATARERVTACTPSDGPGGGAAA

Consider `Oc1ccc2c3c1O[C@H]1c4[nH]c5ccccc5c4C[C@@]4(O)[C@@H](C2)N(CC2CC2)CC[C@]314` [naltrindole], for which the “selectivity for the δ receptor vs. μ receptor binding” value in series [1] is given as below 10 fold. For the same compound, the analgesic activity result in series [2] is “no analgesic activity”.
